According to patent publication US10759796B2, “CXCR4 inhibitors and uses thereof” (X4 Pharmaceuticals, Inc., priority 2016, dated 2020):

Key:
[1] = target: CXCR-4 transfected U87 cell line (U87.CXCR4) (Homo sapiens (Human), UniProt P61073); experiment: Intracellular CXCL-12-induced calcium mobilization assay (FLIPR); type: cell-based; details: U87.CXCR4 cells, CXCL-12 25-50 ng/mL; read-out: IC50 CXCL-12 Ca2+ flux U87.CXCR4+
Description: Example 28: REGA Screening Assay
Intracellular CXCL-12-Induced Calcium Mobilization Assay
Intracellular calcium mobilization induced by chemokines or chemokine-derived peptides were evaluated using a calcium responsive fluorescent probe and a FLIPR system. The CXCR-4 transfected U87 cell line (U87.CXCR4) cells were seeded in gelatine-coated black-wall 96-well plates at 20,000 cells per well and incubated for 12 hours. Cells were then loaded with the fluorescent calcium probe Fluo-2 acetoxymethyl at 4 μM final concentration in assay buffer (Hanks' balanced salt solution with 20 mM HEPES buffer and 0.2% bovine serum albumin, pH 7.4) for 45 min at 37° C. The intracellular calcium mobilization induced by the CXCL-12 (25-50 ng/mL) was then measured at 37° C. by monitoring the fluorescence as a function of time in all the wells simultaneously using a fluorometric imaging plate reader (FLIPR Tetra, Molecular Devices).

[2] = target: Jurkat cells expressing CXCR4 (Homo sapiens (Human), UniProt P61073); experiment: Chemokine (CXCL12-AF647) binding inhibition assay; details: CXCL12-AF647 25 ng/mL, read-out: IC50 CXCL-12 binding Jurkat
Sequence of Jurkat cells expressing CXCR4 (P61073 whole entry): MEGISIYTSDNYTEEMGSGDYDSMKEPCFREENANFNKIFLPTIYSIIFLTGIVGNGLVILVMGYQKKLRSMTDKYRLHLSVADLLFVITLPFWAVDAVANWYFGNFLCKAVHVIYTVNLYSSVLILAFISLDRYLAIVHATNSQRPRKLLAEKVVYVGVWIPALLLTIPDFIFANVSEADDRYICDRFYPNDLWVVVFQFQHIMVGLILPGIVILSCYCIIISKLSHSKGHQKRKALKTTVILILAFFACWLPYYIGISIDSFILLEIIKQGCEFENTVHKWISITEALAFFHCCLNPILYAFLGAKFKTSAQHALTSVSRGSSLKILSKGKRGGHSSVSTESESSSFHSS
Description: Chemokine (CXCL12-AF647) Binding Inhibition Assay
Jurkat cells expressing CXCR4 were washed once with assay buffer (Hanks' balanced salt solution with 20 mM HEPES buffer and 0.2% bovine serum albumin, pH 7.4) and then incubated for 15 min at room temperature with the test compounds diluted in assay buffer at dose-dependent concentrations. Subsequently, CXCL12-AF647 (25 ng/mL) was added to the compound-incubated cells. The cells were incubated for 30 min at room temperature. Thereafter, the cells were washed twice in assay buffer, fixed in 1% paraformaldehyde in PBS, and analyzed on the FL4 channel of a FACSCalibur flow cytometer equipped with a 635-nm red diode laser (Becton Dickinson, San Jose, Calif., USA).
The percentages of inhibition of CXCL12-AF647 binding were calculated according to the formula: [1−((MFI−MFINC)/(MFIPC−MFINC))]×100 where MFI is the mean fluorescence intensity of the cells incubated with CXCL12-AF647 in the presence of the inhibitor, MFINC is the mean fluorescence intensity measured in the negative control (i.e., autofluorescence of unlabeled cells), and MFIPC is the mean fluorescence intensity of the positive control (i.e., cells exposed to CXCL12-AF647 alone).

in vitro = details: human, Caco-2, pH 7.4
Description: Example 28: Caco-2 Permeability Assay
The goal of this assay was to evaluate the intestinal absorption potential of drug candidates using Caco-2 cell lines.
1. Prewarm Prewarm HBSS Buffer in 37° C. water bath
2. Sonicate Take compounds from −20° C., sonicate for a few minutes (no less than 1 minute)
HBSS buffer with 0.3% DMSO and 5 μM LY: add 150 μL DMSO and 50 μL LY (5 mM) into 50 ml HBSS buffer (pH 7.4).
HBSS buffer with 0.1% DMSO and 5 μM LY: add 50 μL DMSO and 50 μL LY (5 mM) into 50 mL HBSS buffer (pH 7.4).
HBSS buffer with 0.3% DMSO: add 150 μL DMSO into 50 ml HBSS buffer (pH 7.4).
HBSS buffer with 0.1% DMSO: add 50 μL DMSO into 50 ml HBSS buffer (pH 7.4).
Receiver Solution Buffer:
Prepare HBSS buffer with 0.4% DMSO: add 200 μL DMSO into 50 ml HBSS buffer (pH 7.4).
Prepare HBSS buffer with 0.4% DMSO and 5 μM LY: add 200 μL DMSO and 50 μL LY (5 mM) into 50 ml HBSS buffer (pH 7.4).
4. Measure TEER Take cell culture plate out of incubator, wash the cell monolayers with HBSS buffer, and then measure TEER values at Rm temperature. 5. Centrifuge Centrifuge the compound solution (from step 3) at 4000 rpm for 5 min before loading to donor chambers. 6. Dosing Add solution based on the volumes listed in the following table (make sure to take extra 100 μL of donor sample for TO as Backup).
7. Apical LYT0 Samples To determine LY concentration in the apical chember, take 100 μL sample from apical chambers into an opaque plate for LYT0. 8. Prewarm Prewarm apical and basolateral plates at 37° C. for about 5 min, then begin transport by placing the apical plate onto basolateral plate. 9. Incubation Keep the plates in incubator at 37° C. for 90 min. 10. Standard Curve Preparation
For 300 μM compound solution, add 6 μL of compound stock solution into 192 μL of MeOH/H2O (1:1).
Prepare Working Solution in MeOH/H2O (1:1)
3 μL (20×)+57 μL of 0.4% DMSO HBSS+60 μL ACN with IS (Osalmid or Imipramine) - - - 120 μL (1×)
11. Transport Termination Separate the apical plate from the basolateral plate after 90-min incubation.
12. Measure LY Take 100 μL samples from basolateral plate to an opaque plate as LYT90.
13. Measure LY concentrations for LYT0 and LYT90 by Fluorometer (at excitation of 485 nm/emission of 535 nm).
Study details: Test concentration 10 μM
Test systems: Caco-2/HBSS solution
Incubation conditions: 0, 90 min at 37° C.
Sample size: Duplicates (n=2)
Bioanalytical method: LC-MS/MS
For Millicell-24 Cell Culture Plates: surface area of the membrane=0.7 cm^2, VA=0.8 mL (A-to-B) or 0.4 mL (B-to-A)
1. Papp values were calculated based on calculated concentrations.
The compound numbers correspond to the compound numbers in Table 1.

Sequence of CXCR-4 transfected U87 cell line (U87.CXCR4) (P61073 whole entry): as above

| SMILES | IC50 [1] [nM] | IC50 [2] [nM] | Papp A→B at 90 min, 10 μM (in vitro) [×10⁻⁶ cm/s] | Papp B→A at 90 min, 10 μM (in vitro) [×10⁻⁶ cm/s] | efflux ratio at 90 min, 10 μM (in vitro) | Papp at 90 min, 10 μM (in vitro) [×10⁻⁶ cm/s] |
| --- | --- | --- | --- | --- | --- | --- |
| Cc1cccnc1[C@H]1CCC[C@@H](c2nc3ccccn3c2CCCN)N1C (stereo in doubt) [Compound I-26] | 100 to 1000 | 0.01 to 100 |  |  |  |  |
| Cc1cccnc1[C@H]1CCC[C@@H](c2nc3ccccn3c2CCCN(C)C)N1C (stereo in doubt) [Compound I-28] | 100 to 1000 | 0.01 to 100 | 0.1 to 10 | 10 to 30 | > 30 |  |
| Cc1cccnc1[C@H]1CCC[C@@H](c2nc3cccc(N4CCN(C)CC4)n3c2F)N1C (stereo in doubt) [Compound I-34] | 0.01 to 100 | 0.01 to 100 | 10 to 30 | 0.1 to 10 | 0.1 to 10 |  |
| Cc1cccnc1[C@@H]1CCC[C@H](c2cn3c(N4CCN(C)CC4)cccc3n2)N1C [Compound I-1] | 0.01 to 100 | 0.01 to 100 | 0.1 to 10 | 10 to 30 | 0.1 to 10 |  |
| Cc1cccnc1[C@@H]1CCC[C@H](c2cn3ccccc3n2)N1CCCCN [Compound I-2] | 100 to 1000 | 100 to 1000 |  |  |  |  |
| Cc1cccnc1[C@@H]1CCC[C@H](c2cn3c(N4CCNCC4)cccc3n2)N1C [Compound I-4] | 0.01 to 100 | 0.01 to 100 | 0.1 to 10 | 10 to 30 | > 30 |  |
| Cc1cccnc1[C@@H]1CCC[C@H](c2cn3c(-c4ccncc4)cccc3n2)N1C [Compound I-5] | 100 to 1000 | 0.01 to 100 |  |  |  |  |
| Cc1cccnc1[C@@H]1CCC[C@H](c2cn3ccccc3n2)N1CCc1ccccn1 [Compound I-8] | 0.01 to 100 | 0.01 to 100 |  |  |  |  |
| Cc1cccnc1[C@@H]1CCC[C@H](c2nc3cccc(N4CCN(C)CC4)n3c2CO)N1C [Compound I-11] | 0.01 to 100 | 0.01 to 100 | 0.1 to 10 | 10 to 30 | 0.1 to 10 |  |
| CCOCc1c([C@H]2CCC[C@@H](c3ncccc3C(C)C)N2C)nc2cccc(N3CCN(CC)CC3)n12 [Compound I-59] | ≥ 1000 | 100 to 1000 |  |  |  |  |
| Cc1cccnc1[C@@H]1CCC[C@H](c2nc3ccccn3c2-c2ccccn2)N1 [Compound I-209] |  | ≥ 1000 |  |  |  |  |
| Cc1cccnc1[C@@H]1CCC[C@H](c2cn3c(-c4ccnn4C)cccc3n2)N1 [Compound I-212] | ≥ 1000 | ≥ 1000 |  |  |  |  |
| Cc1cccnc1[C@@H]1CCC[C@H](c2cn3c(-c4ccncc4)cccc3n2)N1 [Compound I-214] | ≥ 1000 | ≥ 1000 |  |  |  |  |

Further lines, results first:

| IC50 [1] [nM] | IC50 [2] [nM] | Papp A→B at 90 min, 10 μM (in vitro) [×10⁻⁶ cm/s] | Papp B→A at 90 min, 10 μM (in vitro) [×10⁻⁶ cm/s] | efflux ratio at 90 min, 10 μM (in vitro) | Papp at 90 min, 10 μM (in vitro) [×10⁻⁶ cm/s] | SMILES |
| --- | --- | --- | --- | --- | --- | --- |
| 0.01 to 100 | 0.01 to 100 | 0.1 to 10 | 10 to 30 | > 30 |  | Cc1cccnc1[C@H]1CCC[C@@H](c2nc3ccccn3c2CCCN2CCN(C)CC2)N1C (stereo in doubt) [Compound I-25] |
| 0.01 to 100 | 0.01 to 100 | 0.1 to 10 | 0.1 to 10 | 10 to 30 |  | CNCCCc1c([C@@H]2CCC[C@H](c3ncccc3C)N2C)nc2ccccn12 (stereo in doubt) [Compound I-27] |
| 0.01 to 100 | 0.01 to 100 | 0.1 to 10 | 10 to 30 | 0.1 to 10 |  | Cc1cccnc1[C@H]1CCC[C@@H](c2nc3cccc(N4CCN(C)CC4)n3c2C)N1 (stereo in doubt) [Compound I-192] |
| 0.01 to 100 | 0.01 to 100 | 0.1 to 10 | 0.1 to 10 | 0.1 to 10 |  | Cc1cccnc1[C@@H]1CC(=O)C[C@H](c2cn3c(N4CCN(C)CC4)cccc3n2)N1C [Compound I-3] |
| ≥ 1000 | 100 to 1000 |  |  |  |  | Cc1cccnc1[C@@H]1CCC[C@H](c2cn3c(CCc4ccccn4)cccc3n2)N1C [Compound I-7] |
| 0.01 to 100 | 0.01 to 100 | 10 to 30 | 10 to 30 | 0.1 to 10 |  | Cc1cccnc1[C@@H]1CCC[C@H](c2cn3ccccc3n2)N1CCc1cnccn1 [Compound I-9] |
| 0.01 to 100 | 0.01 to 100 |  |  |  |  | Cc1cccnc1[C@@H]1CCC[C@H](c2cn3ccccc3n2)N1CCn1cccn1 [Compound I-10] |
| 0.01 to 100 | 0.01 to 100 | 0.1 to 10 | 10 to 30 | 0.1 to 10 |  | COCc1c([C@H]2CCC[C@@H](c3ncccc3C)N2C)nc2cccc(N3CCN(C)CC3)n12 [Compound I-12] |
| 0.01 to 100 | 0.01 to 100 | 0.1 to 10 | 10 to 30 | 0.1 to 10 |  | CCN1CCN(c2cccc3nc([C@H]4CCC[C@@H](c5ncccc5C)N4C)cn23)CC1 [Compound I-13] |
| ≥ 1000 | 100 to 1000 |  |  |  |  | CC(C)c1cccnc1[C@@H]1CCC[C@H](c2nc3cccc(N4CCN(C)CC4)n3c2CO)N1C [Compound I-74] |
| ≥ 1000 | 0.01 to 100 |  |  |  |  | CN1CCN(c2cccc3nc([C@H]4CCC[C@@H](c5ncccc5C(F)(F)F)N4C)c(Cl)n23)CC1 [Compound I-119] |
| ≥ 1000 | 100 to 1000 |  |  |  |  | Cc1cccnc1[C@@H]1CCC[C@H](c2cn3c(N4CCN(C)CC4=O)cccc3n2)N1 [Compound I-211] |
| ≥ 1000 | ≥ 1000 |  |  |  |  | Cc1cccnc1[C@@H]1CCC[C@H](c2cn3c(-c4cncn4C)cccc3n2)N1 [Compound I-213] |
| ≥ 1000 | ≥ 1000 |  |  |  |  | Cc1cccnc1[C@@H]1CCC[C@H](c2cn3c(-c4cccnc4)cccc3n2)N1 [Compound I-215] |
| ≥ 1000 | ≥ 1000 |  |  |  |  | Cc1cccnc1[C@@H]1CCC[C@H](c2cn3c(-c4ccccn4)cccc3n2)N1 [Compound I-216] |
| ≥ 1000 | ≥ 1000 |  |  |  |  | Cc1cccnc1[C@@H]1CCC[C@H](c2nc3ccccn3c2CCC#N)N1 [Compound I-219] |
|  |  |  |  | > 116 |  | CC[C@H]1OC(=O)[C@H](C)[C@@H](O[C@H]2C[C@@](C)(OC)[C@@H](O)[C@H](C)O2)[C@H](C)[C@@H](O[C@@H]2O[C@H](C)C[C@H](N(C)C)[C@H]2O)[C@](C)(O)C[C@@H](C)C(=O)[C@H](C)[C@@H](O)[C@]1(C)O [Erythromycin, reference compound] |
|  |  |  |  |  | > 10 | COCCc1ccc(OCC(O)CNC(C)C)cc1 (centres unmarked) [Metoprolol, reference compound] |
